One test deals with MoMLV. Briefly: GFP expression of cells infected with MoMLV construct with and without EHNA. The following applies: relative to infection in the absence of EHNA; FIG. 15A vs 15C. It counts as cell-based, Moloney murine leukemia virus (MoMLV). The protocol: (§1) The levels of infection are based on the inhibition of GFP expression, which was determined by infection of cells by MoMLV and HCV viral constructs that included cloned GFP. To determine the consequences of dynein inhibition on the viral life cycle, the expression of viral genes was correlated to the expression (or loss of expression) of GFP. Pictured are cells infected with MoMLV and Hepatitis C with and without EHNA-induced dynein inhibition. Brightness is an indication of GFP expression.
(§2) ATPase activity was inhibited using an anti-dynein small organic molecule (erythro-9-(2-hydroxy-3-nonyl)adenine; EHNA) in another set of experiments. EHNA was obtained from A. G. Scientific and dissolved in Dubelco's Modified Eagle's Medium (DMEM). The solution was added to several sets of treated cells with final concentrations of 0.1 μM, 0.2 μM, 0.5 μM, and 1 μM (FIG. 14).
(§3) To determine the consequences of the loss of cytoplasmic dynein motor activity on the viral life cycle, we cloned the green fluorescent protein (GFP) gene into the viral genomes and assessed GFP expression upon loss of cytoplasmic dynein motor activity (FIG. 15).

The subject of the next test is hepatitis C virus (HCV). Briefly: GFP expression of cells infected with HCV construct with and without EHNA. The test is classed as cell-based. The settings on record: relative to infection in the absence of EHNA; FIG. 15B vs 15D. The protocol:
as §1, §2, §3

Take `CCCCCC[C@@H]([C@@H](C)O)n1cnc2c(N)ncnc21` (racemic) [EHNA, erythro-9-(2-hydroxy-3-nonyl)adenine]: the “infection by MoMLV (inhibition of GFP expression)” value with MoMLV is on record as “inhibits infection”. In the test with hepatitis C virus (HCV), the “infection by hepatitis C virus (inhibition of GFP expression)” value is reported as “inhibits infection”.

Source of the values: patent US20110027293A1, “METHODS AND COMPOSITIONS FOR THE INHIBITION OF VIRAL INFECTION BY TARGETING INTRACELLULAR TRAFFICKING” (priority 2008, published 2011).
